Results published in ChEMBL document CHEMBL3137667, “[Drug-induced liver injury; fourteenth updated edition of the bibliographic database of liver injuries and related drugs]” (Gastroenterol Clin Biol, 2004).

Tests used:
[1] = Highest frequency of moderate liver toxicity observed during clinical trials, expressed as a percentage. [column '% BIOL' in source]; conditions: human
[2] = Highest frequency of acute liver toxicity observed during clinical trials, expressed as a percentage. [column '% AIGUE' in source]; conditions: human
[3] = Times to onset, minimal and maximal, observed in the indexed observations. [column 'DELAI' in source]; conditions: human
[4] = Proposed mechanism(s) of liver damage. [column 'MEC' in source]; conditions: human
[5] = human, serum
[6] = human, serum; remark: listed apart in the source
[7] = human
[8] = human; remark: listed apart in the source
[9] = human; remark: listed apart in the source
[10] = human, serum, 4383 h
[11] = human; remark: listed apart in the source
[12] = human; remark: listed apart in the source
[13] = human; remark: listed apart in the source
[14] = human; remark: listed apart in the source
[15] = human; remark: listed apart in the source
[16] = human; remark: listed apart in the source
[17] = human; remark: listed apart in the source
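Wherever Hepatotoxicity (association with vascular disease) is given: count of indexed literature references reporting vascular liver injury in humans, e.g. peliosis hepatitis, hepatic veno-occlusive disease or Budd-Chiari syndrome.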
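Wherever Hepatotoxicity (benign tumour) is given: value is a count of indexed literature references citing a benign tumour confirmed by histopathology.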
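Wherever Hepatotoxicity (choleostasis) is given: human cholestatic liver injury, shown by histopathology or by peak ALT or AST elevation over alkaline phosphatase ratio below 2, value counts indexed literature reports.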
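Wherever Hepatotoxicity (chronic liver disease) is given: chronic liver injury confirmed by histopathology or persistently raised serum aminotransferase activity beyond 6 months, value given as the count of indexed literature references.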
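Wherever Hepatotoxicity (cirrhosis) is given: value is a count of indexed literature references reporting cirrhosis confirmed by histopathology.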
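Wherever Hepatotoxicity (cytolytic) is given: human cytolytic liver injury, shown by histopathology or by a ratio above 5 of peak ALT or AST elevation to alkaline phosphatase elevation, value counts indexed references.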
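Wherever Hepatotoxicity (granulomatous hepatitis) is given: value is a count of indexed literature references reporting granulomatous liver disease confirmed by histopathology.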
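Wherever Hepatotoxicity (malignant tumour) is given: malignant tumour confirmed by histopathology, value gives the count of indexed literature references reporting it.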
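Wherever Hepatotoxicity (severe hepatitis) is given: human clinical data: severe hepatitis, meaning potentially life-threatening liver failure or clinically observed cases, the value counts how many indexed literature references report it.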
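Wherever Hepatotoxicity (steatosis) is given: steatosis confirmed by histopathology, value is the count of indexed references.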

Compound: ClC=C(Cl)Cl [TRICHLOROETHYLENE]
- Hepatotoxicity (moderate) [1]: 0%
- Hepatotoxicity (acute) [2]: 0%
- Hepatotoxicity (time to onset) [3]: 1 day - 6 weeks
- Hepatotoxicity (mechanism) [4]: Toxic Metabolite
- Hepatotoxicity (moderate) [5]: 1
- Hepatotoxicity (acute) [6]: 14
- Hepatotoxicity (cytolytic) [7]: 14
- Hepatotoxicity (choleostasis) [8]: 0
- Hepatotoxicity (severe hepatitis) [9]: 14
- Hepatotoxicity (chronic liver disease) [10]: 0
- Hepatotoxicity (cirrhosis) [11]: 2
- Hepatotoxicity (granulomatous hepatitis) [12]: 0
- Hepatotoxicity (association with vascular disease) [13]: 0
- Hepatotoxicity (steatosis) [14]: 0
- Hepatotoxicity (malignant tumour) [15]: 0
- Hepatotoxicity (benign tumour) [16]: 0
- Hepatotoxicity (animal toxicity known) [17]: yes

Compound: CO[C@H](C(=O)[C@@H](O)[C@@H](C)O)[C@@H]1Cc2cc3cc(O[C@H]4C[C@@H](O[C@H]5C[C@@H](O)[C@H](O)[C@@H](C)O5)[C@H](O)[C@@H](C)O4)c(C)c(O)c3c(O)c2C(=O)[C@H]1O[C@H]1C[C@@H](O[C@H]2C[C@@H](O[C@H]3C[C@](C)(O)[C@H](O)[C@@H](C)O3)[C@@H](O)[C@@H](C)O2)[C@H](O)[C@@H](C)O1 [PLICAMYCIN]
- Hepatotoxicity (moderate) [1]: 100%
- Hepatotoxicity (acute) [2]: 0%
- Hepatotoxicity (time to onset) [3]: 4 days
- Hepatotoxicity (mechanism) [4]: Dose-dependant
- Hepatotoxicity (moderate) [5]: 24
- Hepatotoxicity (acute) [6]: 6
- Hepatotoxicity (cytolytic) [7]: 6
- Hepatotoxicity (choleostasis) [8]: 0
- Hepatotoxicity (severe hepatitis) [9]: 3
- Hepatotoxicity (chronic liver disease) [10]: 0
- Hepatotoxicity (cirrhosis) [11]: 0
- Hepatotoxicity (granulomatous hepatitis) [12]: 0
- Hepatotoxicity (association with vascular disease) [13]: 0
- Hepatotoxicity (steatosis) [14]: 1
- Hepatotoxicity (malignant tumour) [15]: 0
- Hepatotoxicity (benign tumour) [16]: 0
- Hepatotoxicity (animal toxicity known) [17]: yes

Compound: C[C@@H](CN1CC(=O)NC(=O)C1)N1CC(=O)NC(=O)C1 [DEXRAZOXANE]
- Hepatotoxicity (moderate) [1]: 13%
- Hepatotoxicity (acute) [2]: 0%
- Hepatotoxicity (time to onset) [3]: 1 week
- Hepatotoxicity (mechanism) [4]: Dose-dependant
- Hepatotoxicity (moderate) [5]: 3
- Hepatotoxicity (acute) [6]: 0
- Hepatotoxicity (cytolytic) [7]: 0
- Hepatotoxicity (choleostasis) [8]: 0
- Hepatotoxicity (severe hepatitis) [9]: 0
- Hepatotoxicity (chronic liver disease) [10]: 0
- Hepatotoxicity (cirrhosis) [11]: 0
- Hepatotoxicity (granulomatous hepatitis) [12]: 0
- Hepatotoxicity (association with vascular disease) [13]: 0
- Hepatotoxicity (steatosis) [14]: 0
- Hepatotoxicity (malignant tumour) [15]: 0
- Hepatotoxicity (benign tumour) [16]: 0
- Hepatotoxicity (animal toxicity known) [17]: yes

Compound: COc1cc2c(c(OC)c1OC)-c1ccc(OC)c(=O)cc1[C@@H](NC(C)=O)CC2 [COLCHICINE]
- Hepatotoxicity (moderate) [1]: 28.6%
- Hepatotoxicity (acute) [2]: 0%
- Hepatotoxicity (time to onset) [3]: 2 hours - 2 days
- Hepatotoxicity (mechanism) [4]: Overdose
- Hepatotoxicity (moderate) [5]: 2
- Hepatotoxicity (acute) [6]: 7
- Hepatotoxicity (cytolytic) [7]: 3
- Hepatotoxicity (choleostasis) [8]: 0
- Hepatotoxicity (severe hepatitis) [9]: 0
- Hepatotoxicity (chronic liver disease) [10]: 0
- Hepatotoxicity (cirrhosis) [11]: 0
- Hepatotoxicity (granulomatous hepatitis) [12]: 0
- Hepatotoxicity (association with vascular disease) [13]: 0
- Hepatotoxicity (steatosis) [14]: 0
- Hepatotoxicity (malignant tumour) [15]: 0
- Hepatotoxicity (benign tumour) [16]: 0
- Hepatotoxicity (animal toxicity known) [17]: yes

Compound: Cc1ccc(C(=O)c2cc(O)c(O)c([N+](=O)[O-])c2)cc1 [TOLCAPONE]
- Hepatotoxicity (moderate) ([1]; Liver): 14.3%
- Hepatotoxicity (acute) ([2]; Liver): 0.7%
- Hepatotoxicity (time to onset) [3]: 1 month - 6 months
- Hepatotoxicity (mechanism) ([4]; Liver): Mitochondrial toxicity
- Hepatotoxicity (moderate) [5]: 6
- Hepatotoxicity (acute) [6]: 6
- Hepatotoxicity (cytolytic) ([7]; Liver): 6
- Hepatotoxicity (choleostasis) ([8]; Liver): 0
- Hepatotoxicity (severe hepatitis) ([9]; Liver): 5
- Hepatotoxicity (chronic liver disease) [10]: 0
- Hepatotoxicity (cirrhosis) [11]: 0
- Hepatotoxicity (granulomatous hepatitis) ([12]; Liver): 0
- Hepatotoxicity (association with vascular disease) [13]: 0
- Hepatotoxicity (steatosis) [14]: 0
- Hepatotoxicity (malignant tumour) [15]: 0
- Hepatotoxicity (benign tumour) [16]: 0
- Hepatotoxicity (animal toxicity known) [17]: yes

Compound: COc1cc(NC(C)CCCN)c2ncccc2c1 (configuration not stated) [PRIMAQUINE]
- Hepatotoxicity (moderate) [1]: 0%
- Hepatotoxicity (acute) [2]: 0%
- Hepatotoxicity (time to onset) [3]: 2 days
- Hepatotoxicity (mechanism) [4]: Overdose
- Hepatotoxicity (moderate) [5]: 0
- Hepatotoxicity (acute) [6]: 1
- Hepatotoxicity (cytolytic) [7]: 1
- Hepatotoxicity (choleostasis) [8]: 0
- Hepatotoxicity (severe hepatitis) [9]: 0
- Hepatotoxicity (chronic liver disease) [10]: 0
- Hepatotoxicity (cirrhosis) [11]: 0
- Hepatotoxicity (granulomatous hepatitis) [12]: 0
- Hepatotoxicity (association with vascular disease) [13]: 0
- Hepatotoxicity (steatosis) [14]: 0
- Hepatotoxicity (malignant tumour) [15]: 0
- Hepatotoxicity (benign tumour) [16]: 0
- Hepatotoxicity (animal toxicity known) [17]: yes

Compound: ASPARAGINASE
- Hepatotoxicity (moderate) [1]: 63%
- Hepatotoxicity (acute) [2]: 2.9%
- Hepatotoxicity (mechanism) [4]: Dose-dependant
- Hepatotoxicity (moderate) [5]: 27
- Hepatotoxicity (acute) [6]: 2
- Hepatotoxicity (cytolytic) [7]: 1
- Hepatotoxicity (choleostasis) [8]: 0
- Hepatotoxicity (severe hepatitis) [9]: 2
- Hepatotoxicity (chronic liver disease) [10]: 0
- Hepatotoxicity (cirrhosis) [11]: 0
- Hepatotoxicity (granulomatous hepatitis) [12]: 0
- Hepatotoxicity (association with vascular disease) [13]: 0
- Hepatotoxicity (steatosis) [14]: 9
- Hepatotoxicity (malignant tumour) [15]: 0
- Hepatotoxicity (benign tumour) [16]: 0
- Hepatotoxicity (animal toxicity known) [17]: yes

Compound: O=NN(CCCl)C(=O)NCCCl [CARMUSTINE]
- Hepatotoxicity (moderate) [1]: 26%
- Hepatotoxicity (acute) [2]: 23%
- Hepatotoxicity (time to onset) [3]: 1 week - 6 weeks
- Hepatotoxicity (mechanism) [4]: Dose-dependant
- Hepatotoxicity (moderate) [5]: 8
- Hepatotoxicity (acute) [6]: 6
- Hepatotoxicity (cytolytic) [7]: 3
- Hepatotoxicity (choleostasis) [8]: 1
- Hepatotoxicity (severe hepatitis) [9]: 2
- Hepatotoxicity (chronic liver disease) [10]: 0
- Hepatotoxicity (cirrhosis) [11]: 0
- Hepatotoxicity (granulomatous hepatitis) [12]: 0
- Hepatotoxicity (association with vascular disease) [13]: 10
- Hepatotoxicity (steatosis) [14]: 0
- Hepatotoxicity (malignant tumour) [15]: 0
- Hepatotoxicity (benign tumour) [16]: 0
- Hepatotoxicity (animal toxicity known) [17]: yes

Compound: [N-]=[N+]=O [NITROUS OXIDE]
- Hepatotoxicity (moderate) [1]: 0%
- Hepatotoxicity (acute) [2]: 0%
- Hepatotoxicity (time to onset) [3]: 9 days
- Hepatotoxicity (moderate) [5]: 1
- Hepatotoxicity (acute) [6]: 1
- Hepatotoxicity (cytolytic) [7]: 1
- Hepatotoxicity (choleostasis) [8]: 0
- Hepatotoxicity (severe hepatitis) [9]: 0
- Hepatotoxicity (chronic liver disease) [10]: 0
- Hepatotoxicity (cirrhosis) [11]: 0
- Hepatotoxicity (granulomatous hepatitis) [12]: 0
- Hepatotoxicity (association with vascular disease) [13]: 0
- Hepatotoxicity (steatosis) [14]: 0
- Hepatotoxicity (malignant tumour) [15]: 0
- Hepatotoxicity (benign tumour) [16]: 0
- Hepatotoxicity (animal toxicity known) [17]: yes

Compound: COc1ccc2nc(NC(=O)Nc3ccccc3)sc2c1 [FRENTIZOLE]
- Hepatotoxicity (moderate) [1]: 70%
- Hepatotoxicity (acute) [2]: 0%
- Hepatotoxicity (time to onset) [3]: 1 week - 1 month
- Hepatotoxicity (moderate) [5]: 4
- Hepatotoxicity (acute) [6]: 2
- Hepatotoxicity (cytolytic) [7]: 2
- Hepatotoxicity (choleostasis) [8]: 0
- Hepatotoxicity (severe hepatitis) [9]: 1
- Hepatotoxicity (chronic liver disease) [10]: 1
- Hepatotoxicity (cirrhosis) [11]: 0
- Hepatotoxicity (granulomatous hepatitis) [12]: 0
- Hepatotoxicity (association with vascular disease) [13]: 0
- Hepatotoxicity (steatosis) [14]: 0
- Hepatotoxicity (malignant tumour) [15]: 0
- Hepatotoxicity (benign tumour) [16]: 0
- Hepatotoxicity (animal toxicity known) [17]: yes
